Test results taken from article PMC5750218, “Protein-inspired antibiotics active against vancomycin- and daptomycin-resistant bacteria” (Nature Communications, 2018).
In brackets after ≈: the same amount, converted by molar mass. Where two headings read alike, the source gives them in different places. Values belong to the compound of their own block, whether it stands above or below them.

Legend:
[1] = test system: Vancomycin-intermediate S. aureus NRS1; assay: microbe, parasite or virus in culture; settings: for MIC VISA: Vancomycin-intermediate NRS1
How it was run: (§1)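 Each compound was serially diluted twofold in Mueller Hinton broth, spanning 8 to 0.003 µg mL^−1, and incubated with bacteria for 24 h at 37 °C before visual scoring of growth.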

[2] = test system: Vancomycin-resistant (VanA) Enterococcus faecium ATCC 51559; assay: microbe, parasite or virus in culture; settings: for MIC VRE: ATCC 51559
How it was run: as §1

[3] = test system: Multi-drug-resistant S. pneumoniae ATCC 700677; assay: microbe, parasite or virus in culture; settings: for MIC MDR S.P.: ATCC 700677
How it was run: as §1

[4] = 37 °C, 20 µM
Description: (§3) Briefly, test compounds (20 μM) were prepared from a 0.2 mM H2O stock solution (40 μL in 400 μL assay volume) except eucatropine, which was 300 μg mL^−1 in 100% DMSO (10 μL in 400 μL assay volume equivalent to 23 μM). The precipitating solution was prepared by adding 5 μL of 10 mM carbutamide in DMSO to 100 mL acetonitrile (final concentration: 135.5 ng mL^−1 or 0.5 μM carbutamide). The human plasma sample (pooled normal human plasma sodium heparin anticoagulant, 2 µL, Cat No.: [sequence], BioReclamation) and phosphate-buffer saline (PBS, pH 7.4 isotonic) were pre-heated at 37 °C for 30 min. 40 μL of test compounds (0.2 mM) were added to protein-low binding Eppendorf tubes, 160 μL of buffer was added, and the mixture was vortexed. For eucatropine, 10 μL of eucatropine (300 μg mL^−1) was added to a protein-low binding Eppendorf tube, 190 μL of buffer was added, and the mixture was vortexed. In each case, 200 μL of plasma was added and the resultant mixture vortexed. For the initial time point (reaction time t = 0 h), 50 μL of sample was immediately transferred into a protein-low binding Eppendorf tube and quenched with 150 μL of the ice-cold precipitating solution, followed by vortexing and subsequent storage at 4 °C. For the remaining time points, the plasma solution was incubated and shaken (150 rpm) at 37 °C. 50 μL aliquots were collected at time points of 0, 1, 3, 6 and 24 h and quenched with 150 μL the ice-cold precipitating solution. All samples were placed in a 4 °C fridge for 30 min then centrifuged at 14,000 × g for 8 min at 4 °C. The supernatant (100 μL) was transferred to a glass vial insert and stored at 4 °C until LC-MS/MS analysis. The percentage of test compounds remaining at the individual time points relative to sample at time point 0 h were reported.

Cytotoxicity MTT assay [5] = format: cell-based, human; settings: human
Description: Compound cytotoxicity was evaluated against HepG2 (ATCC-®HB-8065 liver hepatoceullular carcinoma) and HEK293 (ATCC®CRL-1573, embryonic kidney) human cell lines using standard (3-(4,5-dimethylthiazol-2-yl)−2,5-diphenyltetrazolium bromide (MTT) assay protocol with slight changes. In brief, HepG2 and HEK293 cells (assessed annually for mycoplasma contamination) were seeded as 1.5 × 10^4 cells per well in a clear 96-well tissue culture treated plate in a final volume of 100 μL in Dulbecco’s Modified Eagle Medium (DMEM)(GIBCO-Invitrogen #11995-073), in which 1% of FBS was added. Cells were incubated for 24 h at 37 °C, 5% CO2 to allow cells to attach to the plates. […] After the incubation, 0.4 mg mL^−1 MTT (3-(4,5-dimethylthiazol-2-yl)−2,5-diphenyltetrazolium bromide) (Invitrogen) was added to each well. The plates were then incubated for 2 h at 37 °C, 5% CO2. The media was removed, and purple formazan crystals were resuspended in 60 μL of DMSO. The absorbance was read at 570 nm using a Polarstar Omega plate reader. The data was then analysed by Prism software. Results are presented as the average percentage of control ± S.D. for each set of duplicate wells using the following equation: percent viability = (ABSTEST – ABSPOSITIVE CTRL / ABSUNTREATED –ABS POSITIVE CTRL)×100.

[6] = test system: Methicillin-resistant S. aureus ATCC 43300; assay: microbe, parasite or virus in culture; settings: for MIC MRSA: ATCC 43300, 24 h
How it was run: as §1

Cytotoxicity MTT assay [7] = format: cell-based, human; settings: human; remark: listed apart in the source
Description: Compound cytotoxicity was evaluated against HepG2 (ATCC-®HB-8065 liver hepatoceullular carcinoma) and HEK293 (ATCC®CRL-1573, embryonic kidney) human cell lines using standard (3-(4,5-dimethylthiazol-2-yl)−2,5-diphenyltetrazolium bromide (MTT) assay protocol with slight changes. In brief, HepG2 and HEK293 cells (assessed annually for mycoplasma contamination) were seeded as 1.5 × 10^4 cells per well in a clear 96-well tissue culture treated plate in a final volume of 100 μL in Dulbecco’s Modified Eagle Medium (DMEM)(GIBCO-Invitrogen #11995-073), in which 1% of FBS was added. Cells were incubated for 24 h at 37 °C, 5% CO2 to allow cells to attach to the plates. Compounds prepared at 100 µM to 0.046 µM in threefold dilutions were added into each well and incubated for 24 h at 37 °C, 5% CO2. After the incubation, 0.4 mg mL^−1 MTT (3-(4,5-dimethylthiazol-2-yl)−2,5-diphenyltetrazolium bromide) (Invitrogen) was added to each well. The plates were then incubated for 2 h at 37 °C, 5% CO2. The media was removed, and purple formazan crystals were resuspended in 60 μL of DMSO. The absorbance was read at 570 nm using a Polarstar Omega plate reader. The data was then analysed by Prism software. Results are presented as the average percentage of control ± S.D. for each set of duplicate wells using the following equation: percent viability = (ABSTEST – ABSPOSITIVE CTRL / ABSUNTREATED –ABS POSITIVE CTRL)×100.

in vitro = settings: human, 50% human plasma (pooled, sodium heparin) in PBS, pH 7.4
Description: as §3

S. pneumoniae ATCC 33400 = assay: microbe, parasite or virus in culture; format: cell-based, Streptococcus pneumoniae; settings: Streptococcus pneumoniae, ATCC33400, 24 h
Description: (§2) The compounds, along with standard antibiotics were serially diluted twofold across the wells of 96-well non-binding surface (NBS) polystyrene plates (Corning 3641). […] Standards ranged from 64 to 0.03 µg mL^−1 and compounds from 8 to 0.003 µg mL^−1 with final assay volumes of 100 µL per well. Gram-positive bacteria were cultured in Mueller Hinton broth (MHB) (Bactolaboratories, Cat. no. 211443) at 37 °C overnight. A sample of each culture was then diluted 40-fold in fresh MHB and incubated at 37 °C for 2–3 h. The resultant mid-log phase cultures were added to the compound-containing 96-well plates to give a final cell density of 5 × 10^5 colony forming unit (CFU) mL^−1. All the plates were covered and incubated at 37 °C for 24 h. MICs were the lowest concentration showing no visible growth.

[8] = test system: S. pneumoniae ATCC 700677 MDR; assay: microbe, parasite or virus in culture; format: cell-based, Streptococcus pneumoniae; settings: Streptococcus pneumoniae, ATCC700677, 24 h
Description: as §2

[9] = test system: Vancomycin-resistant S. aureus NARSA VRS4; assay: microbe, parasite or virus in culture; format: cell-based, Staphylococcus aureus; settings: for MIC VRSA: Vancomycin-resistant NARSA VRS4
[10] = test system: S. aureus ATCC 43300 MRSA; assay: microbe, parasite or virus in culture; format: cell-based, Staphylococcus aureus; settings: Staphylococcus aureus, 24 h
Description: as §2

Haemolysis assay = format: cell-based; settings: human, whole blood
Description: Haemolytic activity was measured as previously described with slight modifications, [45]. Fresh human venal blood was collected from healthy volunteers and pretreated with the anticoagulant sodium citrate. Serial twofold dilutions of each antibiotic, dissolved in 0.9% NaCl solution, were added to fresh human whole blood (50% final, vol:vol) to the final volume of 80 μL and incubated at 37 °C for 3 h on a horizontal shaker at 200 rpm. For negative and positive controls, human whole blood in 0.9% NaCl solution (A blank) and in sdH2O (A water) were used, respectively. After incubation, both test and A blank were mixed with 1 mL 0.9% NaCl solution, or sdH2O for the complete […] A water. After centrifugation of samples at 2500 rpm (700 × g) for 5 min, the release of haemoglobin was monitored by measuring the absorbance (A sample) of the supernatant at 540 nm using BMG Labtech PolarStar Omega multimode reader. The percentage of haemolysis was calculated according to the equation: %haemolysis=Asample-Ablank∕Awater-Ablank×100

Structure (SMILES): CCCCCCCCCCCCCC(=O)N[C@@H](CCCCN)C(=O)N[C@@H](CCCCN)C(=O)N[C@@H](CCCCN)C(=O)N[C@@H](CSSCCNC(=O)[C@H]1NC(=O)[C@H]2NC(=O)[C@H](NC(=O)[C@@H]3NC(=O)[C@H](CC(N)=O)NC(=O)[C@H](NC(=O)[C@@H](CC(C)C)NC)[C@H](O)c4ccc(c(Cl)c4)Oc4cc3cc(c4O[C@@H]3O[C@H](CO)[C@@H](O)[C@H](O)[C@H]3O[C@H]3C[C@](C)(N)[C@H](O)[C@H](C)O3)Oc3ccc(cc3Cl)[C@H]2O)c2ccc(O)c(c2)-c2c(O)cc(O)cc21)C(=O)O [Compound 15, nC13CO-KKKC(SCH 2 CH 2 NH-Vancomycin)-OH]
MIC VISA [1]: 0.02 µg/mL (≈ 0.009 µM)
MIC VRE [2]: 0.02 µg/mL (≈ 0.009 µM)
MIC MDR S.P. [3]: <0.003 µg/mL
% compound remaining after incubation in 50% human plasma, 0h [4]: 100%
CC50 at 24 h (Cytotoxicity MTT assay [5]): 11 µM
MIC MRSA [6]: <0.003 µg/mL
CC50 at 24 h (Cytotoxicity MTT assay [7]): 18 µM
remaining at 1 h, 20 µM (in vitro): 77%
remaining at 3 h, 20 µM (in vitro): 64%
remaining at 6 h, 20 µM (in vitro): 51%
remaining at 24 h, 20 µM (in vitro): 3%

Structure (SMILES): CCCCCCCCCCNCCN[C@@]1(C)C[C@H](O[C@H]2[C@H](Oc3c4cc5cc3Oc3ccc(cc3Cl)[C@@H](O)[C@@H](NC(=O)[C@@H](CC(C)C)NC)C(=O)N[C@@H](CC(N)=O)C(=O)N[C@H]5C(=O)N[C@H]3C(=O)N[C@H](C(=O)N[C@H](C(=O)O)c5cc(O)c(CNCP(=O)(O)O)c(O)c5-c5cc3ccc5O)[C@H](O)c3ccc(c(Cl)c3)O4)O[C@H](CO)[C@@H](O)[C@@H]2O)O[C@@H](C)[C@H]1O [Compound 2, Telavancin]
MIC (S. pneumoniae ATCC 33400; read-out: MIC S. pneumoniae ATCC 33400, 1% Survanta): 0.25 µg/mL (≈ 0.142 µM)
MIC (S. pneumoniae ATCC 33400; read-out: MIC S. pneumoniae ATCC 33400, 5% Survanta): 0.5 µg/mL (≈ 0.285 µM)
MIC (S. pneumoniae ATCC 33400; read-out: MIC S. pneumoniae ATCC 33400, no added Survanta): 0.125 to 0.25 µg/mL (≈ 0.0712 to 0.142 µM)
MIC ([8]; read-out: MIC S. pneumoniae ATCC 700677 MDR, 1% Survanta): 0.06 to 0.125 µg/mL (≈ 0.0342 to 0.0712 µM)
MIC ([8]; read-out: MIC S. pneumoniae ATCC 700677 MDR, 5% Survanta): 0.25 µg/mL (≈ 0.142 µM)
MIC ([8]; read-out: MIC S. pneumoniae ATCC 700677 MDR, no added Survanta): 0.06 to 0.125 µg/mL (≈ 0.0342 to 0.0712 µM)
MIC ([1]; Staphylococcus aureus, NRS1 / VISA, read-out: MIC VISA): 0.25 µg/mL (≈ 0.142 µM)
MIC ([2]; Enterococcus faecium, ATCC51559 / VRE, read-out: MIC VRE): 2 µg/mL (≈ 1.14 µM)
MIC ([3]; Streptococcus pneumoniae, ATCC700677, read-out: MIC MDR S.P.): 0.06 µg/mL (≈ 0.0342 µM)
CC50 at 24 h (Cytotoxicity MTT assay [5]; 24 h, MTT, 1% FBS, read-out: Cytotoxicity CC50 HepG2): > 100 µM
MIC ([6]; Staphylococcus aureus, ATCC43300|MRSA, 24 h, read-out: MIC MRSA, S. aureus ATCC 43300, NBS plates, MHB, 24 h, substance alone): 0.03 µg/mL (≈ 0.0171 µM)
MIC ([9]; Staphylococcus aureus, VRSA, read-out: MIC VRSA): 1 µg/mL (≈ 0.57 µM)
MIC ([10]; read-out: MIC S. aureus ATCC 43300 MRSA, 1% Survanta): 0.126 µg/mL (≈ 0.0715 µM)
MIC ([10]; read-out: MIC S. aureus ATCC 43300 MRSA, 5% Survanta): 0.25 to 0.5 µg/mL (≈ 0.142 to 0.285 µM)
MIC ([10]; read-out: MIC S. aureus ATCC 43300 MRSA, no added Survanta): 0.125 µg/mL (≈ 0.0712 µM)
CC50 at 24 h (Cytotoxicity MTT assay [7]; 24 h, MTT, 1% FBS, read-out: Cytotoxicity CC50 HEK293): > 100 µM

MIC VRSA [9]: >8 µg/mL
Structure (SMILES): CN[C@H](CC(C)C)C(=O)N[C@H]1C(=O)N[C@@H](CC(N)=O)C(=O)N[C@H]2C(=O)N[C@H]3C(=O)N[C@H](C(=O)N[C@H](C(=O)NCCCC[C@H](NC(=O)[C@H](CCCCN)NC(=O)[C@H](CCCCN)NC(C)=O)C(=O)O)c4cc(O)cc(O)c4-c4cc3ccc4O)[C@H](O)c3ccc(c(Cl)c3)Oc3cc2cc(c3O[C@@H]2O[C@H](CO)[C@@H](O)[C@H](O)[C@H]2O[C@H]2C[C@](C)(N)[C@H](O)[C@H](C)O2)Oc2ccc(cc2Cl)[C@H]1O [Compound 25, Ac-KK-K(Vancomycin)-OH]
CC50 at 24 h (Cytotoxicity MTT assay [5]): > 500 µM
CC50 at 24 h (Cytotoxicity MTT assay [7]): > 500 µM

MIC VISA [1]: 0.125 µg/mL (≈ 0.062 µM)
MIC VRE [2]: 4 µg/mL (≈ 1.98 µM)
MIC MDR S.P. [3]: 0.015 µg/mL (≈ 0.00744 µM)
MIC MRSA [6]: 0.015 µg/mL (≈ 0.00744 µM)
MIC VRSA [9]: 0.5 µg/mL (≈ 0.248 µM)
Structure (SMILES): CCCCCCCCCCC(=O)N[C@@H](CCCCN)C(=O)N[C@@H](CCCCN)C(=O)N[C@@H](CCCCNC(=O)[C@H]1NC(=O)[C@H]2NC(=O)[C@H](NC(=O)[C@@H]3NC(=O)[C@H](CC(N)=O)NC(=O)[C@H](NC(=O)[C@@H](CC(C)C)NC)[C@H](O)c4ccc(c(Cl)c4)Oc4cc3cc(c4O[C@@H]3O[C@H](CO)[C@@H](O)[C@H](O)[C@H]3O[C@H]3C[C@](C)(N)[C@H](O)[C@H](C)O3)Oc3ccc(cc3Cl)[C@H]2O)c2ccc(O)c(c2)-c2c(O)cc(O)cc21)C(=O)NC [Compound 22, nC10CO-KK-K(Vancomycin)-NHMe]
CC50 at 24 h (Cytotoxicity MTT assay [5]): 80 µM
hemolysis at 3 h (Haemolysis assay; 100 µg mL-1): 1.9%
hemolysis at 3 h (Haemolysis assay; 1600 µg mL-1): 2.7%
CC50 at 24 h (Cytotoxicity MTT assay [7]): 47 µM

MIC VISA [1]: 0.06 µg/mL (≈ 0.028 µM)
MIC VRE [2]: 0.5 µg/mL (≈ 0.233 µM)
MIC MDR S.P. [3]: <0.003 µg/mL
MIC MRSA [6]: 0.005 µg/mL (≈ 0.00233 µM)
MIC VRSA [9]: 0.75 µg/mL (≈ 0.35 µM)
Structure (SMILES): CCCCCCCCCCCC(=O)N[C@@H](CCCCN)C(=O)N[C@@H](CCCCN)C(=O)N[C@@H](CCCCN)C(=O)N[C@@H](CCCCNC(=O)[C@H]1NC(=O)[C@H]2NC(=O)[C@H](NC(=O)[C@@H]3NC(=O)[C@H](CC(N)=O)NC(=O)[C@H](NC(=O)[C@@H](CC(C)C)NC)[C@H](O)c4ccc(c(Cl)c4)Oc4cc3cc(c4O[C@@H]3O[C@H](CO)[C@@H](O)[C@H](O)[C@H]3O[C@H]3C[C@](C)(N)[C@H](O)[C@H](C)O3)Oc3ccc(cc3Cl)[C@H]2O)c2ccc(O)c(c2)-c2c(O)cc(O)cc21)C(=O)O [Compound 37, nC11CO-KKK-K(Vancomycin)-OH]
